# Laboratory results as given in ChEMBL document CHEMBL5579798, “Discovery of novel oridonin sulfamide derivatives as potent NLRP3 inhibitors by a visible-light photocatalysis-enabled peripheral editing” (Bioorg Med Chem Lett, 2024).
# Test: Cytotoxicity against human THP-1 cells by CCK-8 method
# Assay type: toxicity, cell-based
row,SMILES,CC50
1,COc1ccc(S(=O)(=O)NCC[C@@H]2C(=O)[C@]34[C@H](O)[C@H]2CC[C@H]3[C@@]23CO[C@]4(O)[C@@H](O)[C@@H]2C(C)(C)CC[C@@H]3O)cc1,> 100 µM
2,CC1(C)CC[C@H](O)[C@]23CO[C@](O)([C@@H](O)[C@H]12)[C@]12C(=O)[C@@H](CCNS(=O)(=O)c4ccsc4)[C@H](CC[C@@H]31)[C@H]2O,> 100 µM
3,CC1(C)CC[C@H](O)[C@]23CO[C@](O)([C@@H](O)[C@H]12)[C@]12C(=O)[C@@H](CCNS(=O)(=O)/C=C/c4ccccc4)[C@H](CC[C@@H]31)[C@H]2O,> 100 µM
4,CC1(C)CC[C@H](O)[C@]23CO[C@](O)([C@@H](O)[C@H]12)[C@]12C(=O)[C@@H](CCNS(=O)(=O)c4ccc(C(F)(F)F)cc4)[C@H](CC[C@@H]31)[C@H]2O,> 100 µM
5,CC1(C)CC[C@H](O)[C@]23CO[C@](O)([C@@H](O)[C@H]12)[C@]12C(=O)[C@@H](CCNS(=O)(=O)c4ccc(C#N)cc4)[C@H](CC[C@@H]31)[C@H]2O,> 100 µM
6,CC(C)(C)OC(=O)NCC[C@@H]1C(=O)[C@]23[C@H](O)[C@H]1CC[C@H]2[C@@]12CO[C@]3(O)[C@@H](O)[C@@H]1C(C)(C)CC[C@@H]2O,> 100 µM
7,CC1(C)CC[C@H](O)[C@]23CO[C@](O)([C@@H](O)[C@H]12)[C@]12C(=O)[C@@H](CCNS(=O)(=O)c4ccc(F)cc4)[C@H](CC[C@@H]31)[C@H]2O,> 100 µM
8,CC1(C)CC[C@H](O)[C@]23CO[C@](O)([C@@H](O)[C@H]12)[C@]12C(=O)[C@@H](CCNS(=O)(=O)c4ccccc4)[C@H](CC[C@@H]31)[C@H]2O,> 100 µM
9,CC1(C)CC[C@H](O)[C@]23CO[C@](O)([C@@H](O)[C@H]12)[C@]12C(=O)[C@@H](CCNS(=O)(=O)c4cccnc4)[C@H](CC[C@@H]31)[C@H]2O,> 100 µM
10,CC1(C)CC[C@H](O)[C@]23CO[C@](O)([C@@H](O)[C@H]12)[C@]12C(=O)[C@@H](CCN)[C@H](CC[C@@H]31)[C@H]2O,> 100 µM
11,Cn1ccc(S(=O)(=O)NCC[C@@H]2C(=O)[C@]34[C@H](O)[C@H]2CC[C@H]3[C@@]23CO[C@]4(O)[C@@H](O)[C@@H]2C(C)(C)CC[C@@H]3O)n1,> 100 µM
12,CN(C)c1cccc2c(S(=O)(=O)NCC[C@@H]3C(=O)[C@]45[C@H](O)[C@H]3CC[C@H]4[C@@]34CO[C@]5(O)[C@@H](O)[C@@H]3C(C)(C)CC[C@@H]4O)cccc12,96.8 µM
13,C=C1C(=O)[C@]23[C@H](O)[C@H]1CC[C@H]2[C@@]12CO[C@]3(O)[C@@H](O)[C@@H]1C(C)(C)CC[C@@H]2O [ORIDONIN],19.8 µM
